Laboratory results reported in patent EP0444546B1, “Hydantoin derivatives for use as hypoglycemic and/or hypolipidemic agents” (MOCHIDA PHARMACEUTICAL CO., LTD., priority 1990, dated 1991).
“Also recorded” adds a separate entry of the source.

Assays:
[1] = tested on: ICR strain mice; assay: Acute toxicity in mice; type: in vivo; conditions: oral dose of 1 g/kg, one-week period after the administration
Text: Hydantoin derivatives of the present invention were examined for acute toxicity.

[2] = tested on: streptozotocin-diabetic rats; assay: Hypoglycemic effects in streptozotocin-diabetic rats; type: in vivo, male Wistar rats
Protocol: (§1) Four days later, the rats with serum glucose levels of between 400 and 500 mg/dl were used. After being fasted for 4 hrs, groups of 5 diabetic rats were orally administered with the compounds of the present invention or gliclazide in a dose of 100 mg/kg. Blood samples were collected from the orbital vein before and 6 hrs after the administration. Serum glucose levels were determined by the enzymatic methods with an autoanalyzer (Cobas Fara ® , Roche).

[3] = tested on: normal rats; assay: Hypoglycemic effects in normal rats; type: in vivo, male Wistar rats
Protocol: Groups of 5 male Wistar rats, after being fasted for 4 hrs, were orally administered with compound 20 or 23 of the present invention or gliclazide. Blood samples were collected from the orbital vein before, 1 hr and 6 hrs after the administration. Serum glucose levels were determined by the enzymatic method with an autoanalyser (Cobas Fara ® , Roche).

[4] = tested on: streptozotocin - diabetic rats; assay: Hypolipidemic effects in streptozotocin-diabetic rats; type: in vivo; conditions: STZ-diabetic rats; for Lowering rate of serum lipids (%) CHOL / Lowering rate of serum lipids (%) NEFA / Lowering rate of serum lipids (%) TG: 100 mg/kg orally for 2 weeks; for Lowering rate of serum lipids (%) CHOL: serum cholesterol 6 hrs after the last administration; for Lowering rate of serum lipids (%) NEFA: serum non-esterified fatty acid 6 hrs after the last administration; for Lowering rate of serum lipids (%) TG: serum triglyceride 6 hrs after the last administration
Protocol: as §1, with “Diabetic rats were produced according to the method of Junod et al. (A. Junod et al., J. Clin. Invest., 48, 2129 (1969)). Briefly, male Wistar rats were given 26.5 mg/kg of streptozotocin (STZ) intravenously. Four” for “Four”
(§2) Diabetic rats were produced according to the method described previously. Groups of 5 diabetic rats were orally administered with compound 20 or 23 of the present invention at a dose of 100 mg/kg for 2 weeks. The rats were deprived of food 4 hrs before the last administration, and 6 hrs after the last administration, blood samples were collected from the orbital vein. Serum triglyceride (TG), non - esterified fatty acid (NEFA) and cholesterol (CHOL) levels were determined by the enzymatic method with an autoanalyzer (Cobas Fara ® , Roche). In this experiment, each parameters of serum lipids in streptozotocin - diabetic rats increased by 40 % of normal rats in the mean value.

[5] = tested on: streptozotocin-diabetic rats; assay: Ketone body lowering effects in streptozotocin-diabetic rats; type: in vivo; conditions: STZ-diabetic rats; for Lowering rate of serum total ketone body (%): 100 mg/kg orally for 2 weeks, blood 6 hrs after the last administration
Protocol: as §1, with “Diabetic rats were produced according to the method of Junod et al. (A. Junod et al., J. Clin. Invest., 48, 2129 (1969)). Briefly, male Wistar rats were given 26.5 mg/kg of streptozotocin (STZ) intravenously. Four” for “Four”
as §2, with “invention” for “invention at a dose of 100 mg/kg”, “total ketone body (KB)” for “triglyceride (TG), non - esterified fatty acid (NEFA) and cholesterol (CHOL)”, “experiment,” for “experiment, each parameters of”, “total ketone body levels” for “lipids”, “92” for “40”

[6] = 100 mg/kg p.o., 1 hour after administration
[7] = 100 mg/kg p.o., 6 hours after administration

Molecule: O=C1CN(S(=O)(=O)c2cc(Cl)sc2Cl)C(=O)N1 [Compound 16, 1-(2,5-dichlorothien-3-ylsulfonyl)hydantoin]
- acute toxicity [1]: no change was observed

Molecule: Cc1ccc(S(=O)(=O)NC(=O)NN2CC3CCCC3C2)cc1 (centres unmarked) [Compound A, gliclazide, reference compound]
- hypoglycemic activity (in words) ([2]; STZ-diabetic rats / experimental animal model of diabetes mellitus): less potent hypoglycemic activity than all compounds of the present invention
- influence on serum glucose level of normal rats (in words) [3]: significantly lowered; also recorded: remarkable hypoglycemic activity
- Lowering rate of serum glucose (%) ([3]; 10 mg/kg p.o., 1 hour after administration): 57%
- Lowering rate of serum glucose (%) ([3]; 10 mg/kg p.o., 6 hours after administration): 1%

Molecule: O=C1CN(S(=O)(=O)c2cc3ccccc3s2)C(=O)N1 [Compound 8, 1-(benzo[b]thien-2-ylsulfonyl)hydantoin]
- acute toxicity [1]: no change was observed

Molecule: 1-(benzo[b]isothiazol-3-ylsulfonyl)hydantoin [Compound 15]
- Lowering rate of serum glucose (%) ([2]; STZ-diabetic rats fasted 4 hrs, 100 mg/kg orally, 6 hrs after administration vs before): 23.6%

Molecule: O=C1CN(S(=O)(=O)c2cc3ccc(Cl)cc3cc2Cl)C(=O)N1 [Compound 2, 1-(3,6-dichloronaphthalen-2-ylsulfonyl)hydantoin]
- acute toxicity [1]: no change was observed

Molecule: O=C1CN(S(=O)(=O)c2cc3ccccc3o2)C(=O)N1 [Compound 9, 1-(benzo[b]furan-2-ylsulfonyl)hydantoin]
- acute toxicity [1]: no change was observed

Molecule: O=C1CN(S(=O)(=O)c2oc3ccccc3c2Br)C(=O)N1 [Compound 20, 1-(3-bromobenzo[b]furan-2-ylsulfonyl)hydantoin]
- lowering of serum triglyceride, non - esterified fatty acid and cholesterol levels (in words) [4]: lowering activities
- Lowering rate of serum lipids (%) CHOL [4]: 31%
- Lowering rate of serum lipids (%) NEFA [4]: 35%
- Lowering rate of serum lipids (%) TG [4]: 36%
- acute toxicity [1]: no change was observed
- lowering of serum total ketone body levels (in words) [5]: lowering activity
- Lowering rate of serum total ketone body (%) [5]: 50%
- influence on serum glucose level of normal rats (in words) [3]: lesser influences
- Lowering rate of serum glucose (%) [3, 6]: 13%
- Lowering rate of serum glucose (%) [3, 7]: 6%

Molecule: O=C1CN(S(=O)(=O)c2oc3ccccc3c2Cl)C(=O)N1 [Compound 23, 1-(3-chlorobenzo[b]furan-2-ylsulfonyl)hydantoin]
- lowering of serum triglyceride, non - esterified fatty acid and cholesterol levels (in words) [4]: lowering activities
- Lowering rate of serum lipids (%) CHOL [4]: 30%
- Lowering rate of serum lipids (%) NEFA [4]: 18%
- Lowering rate of serum lipids (%) TG [4]: 43%
- acute toxicity [1]: no change was observed
- lowering of serum total ketone body levels (in words) [5]: lowering activity
- Lowering rate of serum total ketone body (%) [5]: 43%
- influence on serum glucose level of normal rats (in words) [3]: lesser influences
- Lowering rate of serum glucose (%) [3, 6]: 9%
- Lowering rate of serum glucose (%) [3, 7]: 0%
